Like-named read-outs stand apart in the source and are kept apart here.
Key:
Assay type in all cases: in vivo
Anopheles gambiae s.l. = experiment: experimental hut field trial of spatial repellence, Anopheles; conditions: single compound, 1 ml in open vial in MM-X trap
Procedure: (§1) To test the effects of repellent compounds or compositions disclosed herein on mosquitoes in a controlled environment resembling actual living quarters and conditions, field trials with standardized experimental huts were conducted at Kainji Dam in North Central Nigeria.
(§2) Six such huts were built in a straight line, and the distance between huts was 11 meters. These huts follow a traditional square design, the walls are built with concrete blocks that are subsequently plastered with cement, each wall has a window. The ceiling is plywood and the roof is thatched with eaves that are open, thereby allowing free flow of air into and out of the hut, and thus entry and exit of mosquitoes. There is a door for entry and exit. Two opposing sides of each hut have window exit traps and screened verandas to capture mosquitoes leaving via the windows or eaves. Each hut is raised off the ground on a concrete platform and surrounded by a moat filled with water in order to prevent ants from entering. Each hut is fitted with a mattress and an untreated bed net for sleepers. These huts are similar in design and concept to those used previously elsewhere for studying mosquito behavior and measuring the efficacy of various mosquito control products or intervention methods in Tanzania and Gambia. For design parameters refer to WHOPES 2005. The huts are adjacent to a tributary of the River Niger at a distance of 10 km from the Kainji Dam site and face rice fields known to harbor permanent mosquito breeding sites. The mosquitoes endemic to this area of Nigeria are highly endophillic, that is, they rest mainly indoors.
(§3) Human volunteers that participated as sleepers in this field trial were provided with anti-malarial chemical prophylaxis on a weekly basis, and the protocols used herein were reviewed and approved by the Research Ethics Review Committee of the Nigerian Institute of Medical Research. Six male adult volunteers, aged between 25 and 35 years old, were recruited to sleep in the huts described above. Sleepers were allocated to huts randomly for each series of trials, and this randomization process occurred nightly. The volunteers entered the huts by 21:00 each night and remained inside the huts until 06:30 the following morning. Each morning, the windows were closed and the exit traps blocked with a piece of cloth to prevent mosquitoes that entered from exiting. The traps were then put in a freezer at −20° C. to kill all the mosquitoes before being emptied for identification. By means of a sucking aspirator the verandas and rooms were visually searched for live mosquitoes and any insects found were collected in labelled cups. A 10-minute search was conducted for each hut (room and veranda traps). The exit traps were emptied into a labelled cup and all the mosquitoes placed in the freezer at −20° C. for about 30 minutes before morphological identification.
(§4) The Mosquito Magnet trap Model-X (MM-X trap made by the firm formerly known as American Biophysics (ABC), USA) is a 12V battery operated counter-flow trap that was used as the repellent dispersing device to evaluate the efficacy of repellent compounds or compositions disclosed herein. Four compounds, carvacrol, cumin alcohol, ethyl cinnamate, and butyl cinnamate, were evaluated in comparison to DEET as a nonproprietary conventional repellent in a first experiment. The chemical compounds were provided in liquid form: carvacrol (98%), butyl cinnamate (98%), ethyl cinnamate (98%), cumin alcohol (97%) and DEET (97%). […]

[1] = test system: Anopheles gambiae (Giles) ss strain 16CSS female mosquitoes; experiment: warm body repellence assay (mosquito landings); conditions: for repellent activity in the warm body assay (in words): candidate compounds, initially 1.0-5.0 μg/cm^2 (about 5-31.5 nmole/cm^2)
Procedure: To test the behavior of female mosquitoes to an essential oil containing OBP binding components, a previously described repellence assay [Kröber et al. (2010). An In Vitro Assay for Testing Mosquito Repellents Employing a Warm Body and Carbon Dioxide as a Behavioral Activator. Journal of the American Mosquito Control Association 26(4) 381-386] was conducted that measures the number of mosquito landings on a warm surface onto which an essential oil containing at least one candidate compound was applied.
To conduct a repellency assay, a selected essential oil or ethanol negative control was applied to a warm body at a dose of about 3.8 μg/cm^2 and allowed to dry for 40 seconds in order to allow evaporation of the solvent before introduction into the test cage with mosquitoes. As positive control for repellence, DEET dissolved in ethanol was applied to the warm body at the same dose. The treated warm body in conjunction with a pulse of carbon dioxide was introduced into the test cage containing fifty Anopheles gambiae (Giles) ss strain 16CSS female mosquitoes that were 4-11 days old and the number of mosquito landings on the warm body occurring within a 2-minute period was counted. Each candidate compound was tested in five different cages (i.e., 250 female mosquitoes) in a randomized design, and the ethanol control and up to four candidate compounds were tested in each cage. Raw data on numbers of landings by mosquitoes were analyzed using a linear mixed model accounting for treatment, experimental day, the individual cage, the number of females per cage and the level of the carbon dioxide pulse in ppm using R (R Development Core Team, 2010) and the packages LME4 (Bates and Maechler, Ime4: Linear mixed-effects models using {S4} classes.{R} package version 0.999375-32, 2009) and NLME (Pinheiro et al, nlme: Linear and Nonlinear Mixed Effects Models, 2010; the R Development Core Team, R: A Language and Environment for Statistical Computing, 2010). Repellent values were calculated from counted landings on treatments versus the overall landings on pooled controls.
To test the behavior of female mosquitoes to a candidate compound identified in Example 5, behavioral assays were made using the identified compounds. The repellent assay was performed as described in Example 3, except that candidate compounds were dissolved in ethanol and tested initially at doses between 1.0 and 5.0 μg/cm^2 (about 5-31.5 nmole/cm^2) and, whenever necessary, at lower and/or higher doses as well. Besides the compounds identified in Example 5, compounds related to these were also tested including ethyl-cinnamate and butyl-cinnamate (Table 4).
To test the behavior of female mosquitoes to various combinations of candidate compounds identified in Example 6, repellence assays were made as in Example 3. These repellent assays were made to compare the effectiveness of the strongest repellent compounds identified in Example 6, including, without limitation, carvacrol, ethyl cinnamate, butyl cinnamate, and cumin alcohol with that of DEET.
The doses tested were 2, 4, 6 10 and 20 nmol/cm^2 for the single compounds. The binary 50:50 mixtures were tested at 2, 6, 10 and 20 nmol/cm^2, with each compound making up half the amount tested, so that, for example, the 2 nmol/cm^2 concentration in column A+B represents 1 nmol/cm^2 of A and 1 nmol/cm^2 of B in a binary mixture. DEET was also tested at 25 nmol (top response) and carvacrol was tested at the additional dose of 2.5 nmol (second from left within its column). As an indication, DEET at 20 nmol/cm^2=3.8 μg/cm^2. Mosquitoes were activated using a puff of CO2 from a gas tank upon introduction of the warm body into the test cage containing 50±5 A. gambiae females and mosquito landings were counted for 2 minutes. Each treatment (dose) was tested using five test cages, i.e. on a total of 250 female A. gambiae. […]

Culex spp. = experiment: experimental hut field trial of spatial repellence, Culex; conditions: single compound, 1 ml in open vial in MM-X trap
Procedure: as §1, §2, §3, §4

[2] = 2 nmol (per cm^2, total for mixtures, 50:50)
[3] = 4 nmol (per cm^2, total for mixtures, 50:50)
[4] = 6 nmol (per cm^2, total for mixtures, 50:50)
[5] = 10 nmol (per cm^2, total for mixtures, 50:50)
[6] = 20 nmol (per cm^2, total for mixtures, 50:50)
[7] = Anopheles gambiae, 2 min, read-out: Median Repellency (%)

`CCN(CC)C(=O)c1cccc(C)c1` [DEET, N,N-diethyl-3-methylbenzamide, reference compound] was tested, and the “mosquito counts on the inside walls of the huts (in words)” value (“mosquito counts on the inside walls” for short) (Anopheles gambiae s.l.) was “reduced mosquito counts on the inside walls”, the Median repellence % [1, 2] was 2% and the Median repellence % [1, 3] was 41%. The Median repellence % [1, 4] was 80%, the Median repellence % [1, 5] was 96% and the Median repellence % [1, 6] was 98%. For the same compound, the Median repellence % ([1]; 25 nmol (per cm^2)) was 100%, the median repellency (%) at 20 nmol/cm2 ([1]; Anopheles gambiae, 2 min, 20 nmole per cm^2, read-out: Median Repellency (%)) was 98.5% and the “mosquito counts on the inside walls” value (Culex spp.) was “reduced mosquito counts on the inside walls”.

For `Cc1ccc(C(C)C)cc1O` [carvacrol, 5-isopropyl-2-methylphenol], the “mosquito counts on the inside walls” value (Anopheles gambiae s.l.) was “reduced mosquito counts on the inside walls”, the Median repellence % [1, 2] was 13% and the Median repellence % [1, 3] was 55%. For the same compound, the Median repellence % [1, 4] was 40%, the Median repellence % [1, 5] was 59% and the Median repellence % ([1]; 25 nmol (per cm^2)) was 93%. The median repellency (%) at 25 nmol/cm2 [1, 7] was 93.3%, the “repellent activity in the warm body assay (in words)” value [1] was “activity comparable to DEET” and the “repellent activity (in words)” value ([1]; total concentration 2 nmole/cm^2) was “retained repellent activity”. For the same compound, the “mosquito counts on the inside walls” value (Culex spp.) was “reduced mosquito counts on the inside walls”.

`CC(C)c1ccc(CO)cc1` [cumin alcohol] was tested, and the “spatial repellent effect, induced exophily (in words)” value (Anopheles gambiae s.l.; per night) was “significantly lower than that of DEET”, the Median repellence % [1, 2] was −4% and the Median repellence % [1, 3] was 38%. The Median repellence % [1, 4] was 46%, the Median repellence % [1, 5] was 53% and the Median repellence % [1, 6] was 93%. For the same compound, the median repellency (%) at 20 nmol/cm2 [1, 7] was 92.3%, the “repellent activity in the warm body assay (in words)” value [1] was “activity comparable to DEET” and the “spatial repellent effect, induced exophily (in words)” value (Culex spp.; per night) was “significantly lower than that of DEET”.

Reference: US10390536B2, “Methods, compounds and compositions for repelling insects and/or arachnids” (National Center for Scientific Research “Demokritos”, priority 2013, dated 2019)
